From US20100267803A1, “Regulators Of Fat Metabolism As Anti-Cancer Targets” (The Research Foundation of State University Of New York, priority 2008, published 2010)

What was measured:
Format in all cases: cell-based, human
[1] = system: ERBB2; experiment: ERBB2 western blot of BT474 cells
Experimental: (§1) FIG. 3 PPAR. inhibition impacts NR1D1 expression and ERBB2-positive cells viability. (a) Cell counts of BT474, MDA-MB-361, MCF-7 and HMEC cells treated with vehicle, 10 and 20 μM of the PPAR. antagonist GW9662 for 72 hrs. Results represented as % of control (vehicle). (Error bars are s.d from 3 individual experiments; *P>0.2, **P<0.05, ***P<0.002). (b) BT474 cells treated with vehicle or 20 μM of GW9662 for 48 h were immuno-stained for cleaved Caspase-3. (c) Quantification of Caspase-3 signal. (Error bars are s.d from 3 individual experiments; ***P=0.002). (d) aP2 and NR1D1 mRNA levels of BT474 cells treated with vehicle (control) and 20 μM of GW9662 for 48 h, analyzed by qRT-PCRs. (Error bars are s.d from 3 experiments; ***P<0.0006. (e) BMAL1-luc activity of BT474 cells treated with vehicle or 20 μM of GW9662 for 48 h. (Error bars are s.d from 3 individual experiments; **P=0.03). (f) Total ERBB2 western blot of BT474 cells treated with vehicle or 20 μM GW9662 for 72h. GAPDH was used as control.
(§2) Cell viability—apoptosis assays. […] At least 30 fields were imaged per single experiment. […] Immunoblotting. […] PCR reaction was run using standard conditions.

[2] = system: BMAL1 reporter; experiment: BMAL1 luciferase reporter assay in BT474 cells; details: 20 μM GW9662 for 48 h
Experimental: (§3) FIG. 2 NR1D1 and PBP are necessary for survival of ERBB2-positive cells. (a) PBP and NR1D1 mRNA levels of BT474 cells transfected with luciferase (control), PBP or NR1D1 shRNAs for 48 h, analyzed by qRT-PCRs. (Error bars are s.d from 3 experiments; ***P<0.003, **P=0.01, *P=0.02). (b) BMAL1 luciferase reporter activity of BT474 cells transfected with either empty vector (control), or NR1D1 shRNA for 48 h.
(§4) FIG. 3 PPAR. inhibition impacts NR1D1 expression and ERBB2-positive cells viability. (a) Cell counts of BT474, MDA-MB-361, MCF-7 and HMEC cells treated with vehicle, 10 and 20 μM of the PPAR. antagonist GW9662 for 72 hrs. Results represented as % of control (vehicle). (Error bars are s.d from 3 individual experiments; *P>0.2, **P<0.05, ***P<0.002). (b) BT474 cells treated with vehicle or 20 μM of GW9662 for 48 h were immuno-stained for cleaved Caspase-3. (c) Quantification of Caspase-3 signal. […] (d) aP2 and NR1D1 mRNA levels of BT474 cells treated with vehicle (control) and 20 μM of GW9662 for 48 h, analyzed by qRT-PCRs. […]
Reporter assays. […] Cells were lysed 48 h post-transfection and firefly (reporter) and renilla luciferase activities were measured using the Dual-Luciferase Reporter Assay kit (Promega) on a BioTek Synergy HT reader. The ratio of Firefly to Renilla luciferase activity was calculated and presented as percentage of control.

[3] = system: aP2 (FABP4) mRNA; experiment: qRT-PCR of aP2 mRNA in BT474 cells; details: 20 μM GW9662 for 48 h
Experimental: as §1, §2

[4] = system: NR1D1 mRNA; experiment: qRT-PCR of NR1D1 mRNA in BT474 cells; details: 20 μM GW9662 for 48 h
Experimental: as §3
FIG. 3 PPAR. inhibition impacts NR1D1 expression and ERBB2-positive cells viability. (a) Cell counts of BT474, MDA-MB-361, MCF-7 and HMEC cells treated with vehicle, 10 and 20 μM of the PPAR. antagonist GW9662 for 72 hrs. Results represented as % of control (vehicle). (Error bars are s.d from 3 individual experiments; *P>0.2, **P<0.05, ***P<0.002). (b) BT474 cells treated with vehicle or 20 μM of GW9662 for 48 h were immuno-stained for cleaved Caspase-3. (c) Quantification of Caspase-3 signal. (Error bars are s.d from 3 individual experiments; ***P=0.002). (d) aP2 and NR1D1 mRNA levels of BT474 cells treated with vehicle (control) and 20 μM of GW9662 for 48 h, analyzed by qRT-PCRs. […]

[5] = system: FASN mRNA; experiment: qRT-PCR of FASN mRNA in BT474 cells; details: shRNA or 20 μM GW9662 for 48 h
Experimental: (§5) FIG. 4 NR1D1 and PBP coordinate fatty acid metabolism in breast cancer cells. (a) BT474, MDA-MB-361, MCF-7 and HMEC cells were stained with Oil-Red O lipid and hematoxylin nuclear stains. (b) Fat stores were quantified by BODIPY 493/503 lipid probe staining (Error bars are s.d from 3 individual experiments). (c) FASN, ACLY, ACACA and FADS2 mRNA levels of BT474 cells treated with luciferase (control), PBP or NR1D1 shRNAs, or with vehicle and 20 μM of GW9662 for 48 h, analyzed by qRT-PCRs. (Error bars are s.d from 3 experiments; ***P<0.001, **P=0.005) (d) BT474 cells were transfected with FASN, ACLY and ACACA shRNAs and co-transfected with GFP. Transfected cells were counted at 24 h and 72 h and the 72h-to-24 h ratio for each shRNA was calculated and expressed as % of the control shRNA (luciferase). (Error bars are s.d from 3 individual experiments; **P<0.01, ***P<0.002). (e) BODIPY images and (f) quantification of BT474 cells transfected with luciferase (control), PBP or NR1D1 shRNAs and co-transfected with DsRed (Error bars are s.d from 3 individual experiments; ***P<0.03). Arrows indicate transfected cells.
as §2

[6] = system: FADS2 mRNA; experiment: qRT-PCR of FADS2 mRNA in BT474 cells; details: shRNA or 20 μM GW9662 for 48 h
Experimental: as §5, §2

[7] = system: ACACA mRNA; experiment: qRT-PCR of ACACA mRNA in BT474 cells; details: shRNA or 20 μM GW9662 for 48 h
Experimental: as §5, §2

[8] = system: BT474, MDA-MB-361, MCF-7 and HMEC cells; experiment: Cell counts after PPARγ antagonist treatment; details: 10 and 20 μM for 72 hrs; % of vehicle
Experimental: as §1, §2

[9] = system: BT474 cells; experiment: Apoptosis by cleaved Caspase-3 or activated Bax immunofluorescence; details: 48 h of shRNA or 20 μM GW9662
Experimental: Results are shown as percentage of control. (**P=0.03). (c) BT474 cells were transfected with luciferase (control), PBP and NR1D1 shRNAs and co-transfected with GFP. Green cells were counted at intervals and expressed as percentage of control. (Error bars are s.d from 3 individual experiments; *P<0.08, **P<0.03, ***P<0.005). (d) BT474 cells were transfected with luciferase (control), PBP or NR shRNAs for 48 h. Immunofluorescence was performed for cleaved Caspase-3 signal; cell nuclei were stained with Hoechst 33243. (e) Cells from […] were counted for cleaved Caspase-3 signal. (Error bars are s.d from 3 individual experiments; ***P<0.0003). (f) BT474 cells were transfected with luciferase (control) PBP, NR1D1 or PBP and NR1D1 shRNAs together and co-transfected with GFP. Transfected cells were counted at 24 h and 72 h and the 72 h-to-24 h ratio for each shRNA was calculated and expressed as % of the control shRNA (luciferase). (Error bars are s.d from 3 individual experiments; **P=0.01, ***P<0.002). (g) Cells from (f) were counted for cleaved Caspase-3 signal. (Error bars are s.d from 3 individual experiments; ***P<0.0001). (h) ERBB2 mRNA levels of BT474 cells transfected with luciferase (control), PBP or NR1D1 shRNAs for 48 h, analyzed by qRT-PCRs. (Error bars are s.d from 3 individual experiments; ***P=0.0001).
as §4, with “(b) BT474 cells treated with vehicle or 20 μM of GW9662 for 48 h were immuno-stained for cleaved Caspase-3.” left out
FIG. 5. (a) MDH1 and ME1 mRNA levels of BT474 cells treated with luciferase (control), PBP or NR1D1 shRNAs for 48 h, analyzed by qRT-PCRs. […] (d) Quantification of cleaved Caspase-3 signal from cells in (c). […]

[10] = system: ACLY mRNA; experiment: qRT-PCR of ACLY mRNA in BT474 cells; details: shRNA or 20 μM GW9662 for 48 h
Experimental: as §5, §2

With `O=C(Nc1ccccc1)c1cc([N+](=O)[O-])ccc1Cl` [GW9662, reference compound] the ERBB2 protein levels ([1]; 20 μM GW9662 for 72h) was “Neither ERBB2 protein levels (FIG. 3f), nor ERBB2 phosphorylation (FIG. S3d) were significantly affected”, the ERBB2 phosphorylation ([1]; GW9662 treatment) was “Neither ERBB2 protein levels (FIG. 3f), nor ERBB2 phosphorylation (FIG. S3d) were significantly affected” and the BMAL1 reporter activity [2] was “increased BMAL1 reporter activity”. The “mRNA levels of aP2” value [3] was “decreased mRNA levels of aP2”, the NR1D1 message levels [4] was “dramatically decreased” and the FASN transcript level [5] was “reduced”. For the same compound, the FADS2 transcript levels [6] was “downregulated”, the ACACA transcript level [7] was “reduced” and the “sensitivity of cells to drug treatment (cell counts)” value [8] was “ERBB2-positive cells were more sensitive to drug treatment than MCF-7 and HMEC cells”. For the same compound, the apoptosis [9] was “apoptosis of BT474 cells” and the ACLY transcript level [10] was “reduced”.
